Tested on: transiently ocular hypertensive New Zealand white rabbits
Assay: Intraocular pressure (IOP) lowering activity in hypertonic saline-induced IOP increase in rabbits
Assay type: in vivo
Details: for Mean IOP changes vs vehicle and baseline, 60 min: 60 min after topical application, hypertonic saline 5% intravitreal; for Mean IOP changes vs vehicle and baseline, 60 min / IOP60 min reduction vs vehicle / Mean IOP changes vs vehicle and baseline, 90 min / Mean IOP changes vs vehicle and baseline, 180 min / Mean IOP changes vs vehicle and baseline, 300 min / Mean IOP changes vs vehicle and baseline, 120 min / Mean IOP changes vs vehicle and baseline, 240 min / Maximal IOP reduc.: dose (%); for IOP60 min reduction vs vehicle / Delta60 min vs parent drug: 60 minutes after topical administration; for Delta60 min vs parent drug: parent drug bimatoprost (A-1, B-1) or fluprostenol isopropyl ester (Comp. 9-13); for Mean IOP changes vs vehicle and baseline, 90 min: 90 min after topical application; for Mean IOP changes vs vehicle and baseline, 90 min / Mean IOP changes vs vehicle and baseline, 180 min / Mean IOP changes vs vehicle and baseline, 300 min: treatment group B (pneumatonometer); for Mean IOP changes vs vehicle and baseline, 180 min: 180 min after topical application; for Mean IOP changes vs vehicle and baseline, 300 min: 300 min after topical application; for Mean IOP changes vs vehicle and baseline, 120 min: 120 min after topical application; for Mean IOP changes vs vehicle and baseline, 120 min / Mean IOP changes vs vehicle and baseline, 240 min: treatment group A (Tono-Pen VET); for Mean IOP changes vs vehicle and baseline, 240 min: 240 min after topical application; for Maximal IOP reduc.: topical application
Description: Intraocular Pressure (IOP) Lowering Activity in Hypertonic Saline-Induced IOP Increase in Rabbits
Compounds (9), (10), (11), (12) and (13) of the invention and compounds (A-1) and (B-1) disclosed in WO 2009/136281 were directly compared with fluprostenol isopropyl ester and bimatoprost, in the same model of ocular hypertensive rabbit. The hypotensive effects of the two groups of compounds were independently evaluated at different time points and in different sets of hypertensive rabbits.
Test compounds and dose (equimolar to the correspondent parent drug)
Vehicle: buffered aqueous solution pH 6, polyoxyl 40 hydrogenated castor oil 5 mg/ml, tromethamine 10 mg/ml, boric acid 6 mg/ml, mannitol 40 mg/ml, edetate disodium 0.5 mg/ml and benzalkonium chloride 0.15 mg/mL
Male New Zealand white rabbits weighing 2.0-2.5 kg were used in the experiments. The transient increase in IOP was induced by the injection of 0.1 ml of hypertonic saline solution (5%) into the vitreous of both eyes.
(§1) Intraocular pressure (IOP) was determined using a Tono-Pen VET prior to hypertonic saline injection (basal) and at 30, 60, 120 and 240 min thereafter. Vehicle or tested compound dissolved in the vehicle was instilled immediately after the injection of hypertonic saline into the conjunctival pocket. Eyes were randomly assigned to different treatment groups.
One drop of 0.4% oxybuprocaine hydrochloride (Novesine, Sandoz) was instilled in each eye immediately before each set of pressure measurements.
Treatment Groups B (Prior Art Compounds)
Vehicle: tween 80 0.5%, 0.2 mg/ml benzalkonium chloride, 0.3% DMSO in PBS pH 6.7
as §1, with “pneumatonometer” for “Tono-Pen VET”, “90, 180” for “120”, “300” for “240”
The intraocular pressure values measured following topical application of the tested compounds are reported in Table 1 expressed as mean IOP change in treated eyes versus vehicle-treated eyes at same time point and baseline; Table 1 also reports the maximal IOP reduction of the tested compounds expressed in percentage.

Row | Structure (SMILES) | Mean IOP changes vs vehicle and baseline, 60 min | IOP60 min reduction vs vehicle | Delta60 min vs parent drug | Mean IOP changes vs vehicle and baseline, 90 min | Mean IOP changes vs vehicle and baseline, 180 min | Mean IOP changes vs vehicle and baseline, 300 min | Mean IOP changes vs vehicle and baseline, 120 min | Mean IOP changes vs vehicle and baseline, 240 min | Maximal IOP reduc.
1 | CCNC(=O)CCC/C=C\C[C@@H]1[C@@H](/C=C/[C@@H](O)CCc2ccccc2)[C@H](O)C[C@@H]1O [Bimatoprost, reference compound] | −1.8 ± 2.4 mmHg | 1% | 0 mmHg | −2.7 ± 2.0 mmHg | 0.8 ± 1.5 mmHg | 0.3 ± 2.6 mmHg | – | – | –
2 | CC(C)OC(=O)CCC/C=C\C[C@@H]1[C@@H](/C=C/[C@H](COc2cccc(C(F)(F)F)c2)OC(=O)CCCCCO[N+](=O)[O-])[C@H](O)C[C@@H]1O [Comp. (9)] | −6.6 ± 0.9 mmHg | 20% | −6.5 mmHg | – | – | – | −8.2 ± 1.2 mmHg | −2.0 ± 0.7 mmHg | 23 ± 3%
3 | CC(C)OC(=O)CCC/C=C\C[C@@H]1[C@@H](/C=C/[C@H](COc2cccc(C(F)(F)F)c2)OC(=O)CCCC(CO[N+](=O)[O-])O[N+](=O)[O-])[C@H](O)C[C@@H]1O (stereo partly drawn) [Comp. (10), (Z)-isopropyl 7-((1R,2R,3R,5S)-2-((3R,E)-3-(5,6-bis(nitrooxy)hexanoyloxy)-4-(3-(trifluoromethyl)phenoxy)but-1-enyl)-3,5-dihydroxycyclopentyl)hept-5-enoate] | −9.2 ± 1.0 mmHg | 28% | −9.1 mmHg | – | – | – | −8.8 ± 1.2 mmHg | −1.2 ± 0.8 mmHg | 26 ± 3%
4 | CC(C)OC(=O)CCC/C=C\C[C@@H]1[C@@H](/C=C/[C@H](COc2cccc(C(F)(F)F)c2)OC(=O)COCCO[N+](=O)[O-])[C@H](O)C[C@@H]1O [Comp. (11), (Z)-isopropyl 7-((1R,2R,3R,5S)-3,5-dihydroxy-2-((R,E)-3-(2-(2-nitrooxyethoxy)acetoxy)-4-(3-(trifluoromethyl)phenoxy)but-1-enyl)cyclopentyl)hept-5-enoate] | −9.7 ± 0.8 mmHg | 32% | −9.6 mmHg | – | – | – | −7.4 ± 0.9 mmHg | −3.2 ± 0.6 mmHg | 37 ± 4%
5 | CC(C)OC(=O)CCC/C=C\C[C@@H]1[C@@H](/C=C/[C@H](COc2cccc(C(F)(F)F)c2)OC(=O)CCOCC(CO[N+](=O)[O-])O[N+](=O)[O-])[C@H](O)C[C@@H]1O (stereo partly drawn) [Comp. (12), (Z)-isopropyl 7-((1R,2R,3R,5S)-2-((3R,E)-3-(3-(2,3-bis(nitrooxy)propoxy)propanoyloxy)-4-(3-(trifluoromethyl)phenoxy)but-1-enyl)-3,5 dihydroxycyclopentyl)hept-5-enoate] | −7.1 ± 0.8 mmHg | 22% | −7.0 mmHg | – | – | – | −9.6 ± 1.0 mmHg | −2.9 ± 0.5 mmHg | 38 ± 3%
6 | O=C(O)CCC/C=C\C[C@@H]1[C@@H](/C=C/[C@H](COc2cccc(C(F)(F)F)c2)OC(=O)CCCC(CO[N+](=O)[O-])O[N+](=O)[O-])[C@H](O)C[C@@H]1O (stereo partly drawn) [Comp. (13), (Z)-7-((1R,2R,3R,5S)-2-((R,E)-3-(5,6-bis(nitrooxy)hexanoyloxy)-4-(3-(trifluoromethyl)phenoxy)but-1-enyl)-3,5-dihydroxycyclopentyl)hept-5-enoic acid] | −8.6 ± 1.2 mmHg | 31% | −8.5 mmHg | – | – | – | −6.9 ± 0.9 mmHg | −0.3 ± 1.0 mmHg | 39 ± 3%
7 | CCNC(=O)CCC/C=C\C[C@@H]1[C@@H](/C=C/[C@H](CCc2ccccc2)OC(=O)CCCO[N+](=O)[O-])[C@H](O)C[C@@H]1O [Compound A-1, (1S,2E)-3-{(1R,2R,3 S,5R)-2-[(2Z)-7-(Ethylamino)-7-oxohept-2-en-1-yl]-3,5-dihydroxycyclopentyl}-1-(2-phenylethyl)prop-2-en-1-yl 4-(nitrooxy) butanoate, reference compound] | −0.06 ± 5.2 mmHg | 4% | Not effective | 0.03 ± 5.0 mmHg | 1.1 ± 2.8 mmHg | −1.9 ± 3.2 mmHg | – | – | 3 ± 9%
8 | CCNC(=O)CCC/C=C\C[C@@H]1[C@@H](/C=C/[C@H](CCc2ccccc2)OC(=O)CCCCCO[N+](=O)[O-])[C@H](O)C[C@@H]1O [Compound B-1, (1S,2E)-3-{(1R,2R,3S,5R)-2-[(2Z)-7-(Ethylamino)-7-oxohept-2-en-1-yl]-3,5-dihydroxycyclopentyl}-1-(2-phenylethyl)prop-2-en-1-yl 6-(nitrooxy) hexanoate, reference compound] | −3.9 ± 2.5 mmHg | 7% | −2.1 mmHg | −5.6 ± 2.8 mmHg | 5.3 ± 1.5 mmHg | −3.9 ± 1.9 mmHg | – | – | 10 ± 3%
9 | CC(C)OC(=O)CCC/C=C\C[C@@H]1[C@@H](/C=C/[C@@H](O)COc2cccc(C(F)(F)F)c2)[C@H](O)C[C@@H]1O [Fluprostenol isopropyl ester, reference compound] | −0.08 ± 1.2 mmHg | 3% | 0 mmHg | – | – | – | −2.0 ± 1.3 mmHg | −0.4 ± 0.9 mmHg | –
